{"source": "ChEMBL document CHEMBL3044741", "about": "“Synthesis of novel biologically active methylene derivatives of sydnones” (Med Chem Res, 2013)", "key": {"[1]": {"assay": "Selectivity index, ratio of CC50 for human MT4 cells to IC50 for HIV2 ROD", "format": "functional"}, "[2]": {"test_system": "Human immunodeficiency virus 2", "assay": "Antiviral activity against HIV2 ROD infected in MT4 cells assessed as inhibition of virus-induced cytopathogenicity by MTT assay", "format": "functional, organism-based", "conditions": "Human immunodeficiency virus 2, ISOLATE ROD"}, "[3]": {"test_system": "Human alphaherpesvirus 3", "assay": "Antiviral activity against Varicella-zoster virus Oka expressing thymidine kinase infected in HEL cells assessed as reduction in plaque formation", "format": "functional, organism-based", "conditions": "Human alphaherpesvirus 3, strain Oka vaccine"}, "[4]": {"test_system": "Candida albicans", "assay": "Antifungal activity against Candida albicans MTCC 227", "format": "functional"}, "[5]": {"test_system": "Pseudomonas aeruginosa", "assay": "Antibacterial activity against Pseudomonas aeruginosa MTCC 424 after 24 hrs by broth dilution method", "format": "functional", "conditions": "MTCC 424, 24 h"}, "[6]": {"assay": "Selectivity index, ratio of CC50 for human MT4 cells to IC50 for HIV1 3B", "format": "functional"}, "[7]": {"test_system": "Staphylococcus aureus", "assay": "Antibacterial activity against Staphylococcus aureus MTCC 96 after 24 hrs by broth dilution method", "format": "functional", "conditions": "MTCC 96, 24 h"}, "[8]": {"assay": "Cytotoxicity against human HEL cells assessed as alteration in cell morphology", "format": "cell-based"}, "[9]": {"test_system": "Streptococcus pyogenes", "assay": "Antibacterial activity against Streptococcus pyogenes MTCC 442 at 250 ug/ml after 24 hrs by Kirby-Bauer method", "format": "functional", "conditions": "MTCC 442, 24 h, read-out: IZ"}, "[10]": {"test_system": "Candida albicans", "assay": "Antifungal activity against Candida albicans MTCC 227 at 250 ug/ml after 74 hrs by Kirby-Bauer method", "format": "functional", "conditions": "MTCC 227, 74 h, read-out: IZ"}, "[11]": {"test_system": "Streptococcus pyogenes", "assay": "Antibacterial activity against Streptococcus pyogenes MTCC 442 after 24 hrs by broth dilution method", "format": "functional", "conditions": "MTCC 442, 24 h"}, "[12]": {"test_system": "Cytomegalovirus", "assay": "Antiviral activity against Cytomegalovirus AD-169 infected in HEL cells assessed as reduction in plaque formation", "format": "functional, organism-based", "conditions": "Human betaherpesvirus 5, AD-169, HEL"}, "[13]": {"test_system": "Aspergillus niger", "assay": "Antifungal activity against Aspergillus niger MTCC 282 at 250 ug/ml after 74 hrs by Kirby-Bauer method", "format": "functional", "conditions": "MTCC 282, 74 h, read-out: IZ"}, "[14]": {"test_system": "Staphylococcus aureus", "assay": "Antibacterial activity against Staphylococcus aureus MTCC 96 at 250 ug/ml after 24 hrs by Kirby-Bauer method", "format": "functional", "conditions": "MTCC 96, 24 h, read-out: IZ"}, "[15]": {"test_system": "Human immunodeficiency virus 1", "assay": "Antiviral activity against HIV1 3B infected in MT4 cells assessed as inhibition of virus-induced cytopathogenicity by MTT assay", "format": "functional, organism-based", "conditions": "Human immunodeficiency virus 1, 3B"}, "[16]": {"test_system": "Escherichia coli", "assay": "Antibacterial activity against Escherichia coli MTCC 443 at 250 ug/ml after 24 hrs by Kirby-Bauer method", "format": "functional", "conditions": "MTCC 443, 24 h, read-out: IZ"}, "[17]": {"test_system": "Escherichia coli", "assay": "Antibacterial activity against Escherichia coli MTCC 443 after 24 hrs by broth dilution method", "format": "functional", "conditions": "MTCC 443, 24 h"}, "[18]": {"test_system": "Aspergillus clavatus", "assay": "Antifungal activity against Aspergillus clavatus MTCC 1323", "format": "functional"}, "[19]": {"test_system": "Aspergillus niger", "assay": "Antifungal activity against Aspergillus niger MTCC 282", "format": "functional"}, "[20]": {"test_system": "Aspergillus clavatus", "assay": "Antifungal activity against Aspergillus clavatus MTCC 1323 at 250 ug/ml after 74 hrs by Kirby-Bauer method", "format": "functional", "conditions": "MTCC 1323, 74 h, read-out: IZ"}, "[21]": {"assay": "Cytotoxicity against human HEL cells", "format": "cell-based"}, "[22]": {"test_system": "Human alphaherpesvirus 3", "assay": "Antiviral activity against thymidine kinase-deficient Varicella-zoster virus infected in HEL cells assessed as reduction in plaque formation", "format": "functional, organism-based", "conditions": "Human alphaherpesvirus 3, HEL"}, "[23]": {"test_system": "Cytomegalovirus", "assay": "Antiviral activity against Cytomegalovirus Davis in HEL cells assessed as reduction in plaque formation", "format": "functional, organism-based", "conditions": "Human betaherpesvirus 5, Davis"}, "[24]": {"test_system": "Pseudomonas aeruginosa", "assay": "Antibacterial activity against Pseudomonas aeruginosa MTCC 424 at 250 ug/ml after 24 hrs by Kirby-Bauer method", "format": "functional", "conditions": "MTCC 424, 24 h, read-out: IZ"}, "[25]": {"assay": "Cytotoxicity against human MT4 cells by MTT assay", "format": "cell-based"}}}
{"smiles": "CC(=O)N1CCN(Cc2c([O-])on[n+]2-c2ccc(Cc3ccc(-[n+]4noc([O-])c4CN4CCN(C(C)=O)CC4)cc3)cc2)CC1", "values": [{"measurement": "Ratio CC50/IC50", "setting": "[1]", "result": "<1"}, {"measurement": "IC50", "setting": "[2]", "result": "> 12", "unit": "µg/mL"}, {"measurement": "EC50", "setting": "[3]", "result": "> 0.8", "unit": "µg/mL"}, {"measurement": "MIC", "setting": "[4]", "result": 250, "unit": "µg/mL"}, {"measurement": "MIC", "setting": "[5]", "result": 200, "unit": "µg/mL"}, {"measurement": "Ratio CC50/IC50", "setting": "[6]", "result": "<1"}, {"measurement": "MIC", "setting": "[7]", "result": 250, "unit": "µg/mL"}, {"measurement": "MCC", "setting": "[8]", "result": 20, "unit": "µg/mL"}, {"measurement": "zone of inhibition at 250 µg/mL", "setting": "[9]", "result": 16, "unit": "mm"}, {"measurement": "zone of inhibition at 250 µg/mL", "setting": "[10]", "result": 23, "unit": "mm"}, {"measurement": "MIC", "setting": "[11]", "result": 100, "unit": "µg/mL"}, {"measurement": "EC50", "setting": "[12]", "result": "> 4", "unit": "µg/mL"}, {"measurement": "zone of inhibition at 250 µg/mL", "setting": "[13]", "result": 21, "unit": "mm"}, {"measurement": "zone of inhibition at 250 µg/mL", "setting": "[14]", "result": 20, "unit": "mm"}, {"measurement": "IC50", "setting": "[15]", "result": "> 12", "unit": "µg/mL"}, {"measurement": "zone of inhibition at 250 µg/mL", "setting": "[16]", "result": 18, "unit": "mm"}, {"measurement": "MIC", "setting": "[17]", "result": 250, "unit": "µg/mL"}, {"measurement": "MIC", "setting": "[18]", "result": 250, "unit": "µg/mL"}, {"measurement": "MIC", "setting": "[19]", "result": 1000, "unit": "µg/mL"}, {"measurement": "zone of inhibition at 250 µg/mL", "setting": "[20]", "result": 25, "unit": "mm"}, {"measurement": "CC50", "setting": "[21]", "result": 10.2, "unit": "µg/mL"}, {"measurement": "EC50", "setting": "[22]", "result": "> 0.8", "unit": "µg/mL"}, {"measurement": "EC50", "setting": "[23]", "result": "> 4", "unit": "µg/mL"}, {"measurement": "zone of inhibition at 250 µg/mL", "setting": "[24]", "result": 18, "unit": "mm"}, {"measurement": "CC50", "setting": "[25]", "result": 12, "unit": "µg/mL"}]}
